According to US10501494B2, “Uses of peptides to treat brain injury and disease” (priority 2013, dated 2019):
Read-outs that look alike come from different tables or passages of the source.

Legend:
[1] = system: microglial and astrocytes; details: daily peripheral administration, hippocampus; cited from earlier work
inflammatory cytokines [2] = details: Hu; Ruff, 2003; cited from earlier work
[3] = Survival of MethA ascites tumor-bearing mice treated with LPS; assay type: in vivo; details: 1 mg/Kg, 50 μgm LPS i.p.; vehicle control 5/20
Method: Associated with the injection of LPS is the extensive production of tumor necrosis factor alpha (TNF-α). Mice injected with recombinant human TNF-α develop pilo erection of the hair (ruffling), diarrhea and a withdrawn and unkempt appearance, followed by death if sufficient amounts are given. Rats treated with TNF become hypotensive, tachypneic and die of sudden respiratory arrest. Administration of DAPTA (1 mg/Kg) to MethA ascites tumor-bearing mice that were treated with 50 μgm LPS by i.p. injection, had better survival (15/20 in the DAPTA treated group compared to 5/20 in the vehicle control treated group). Thus DAPTA blocks septic shock via innate immune pathways, like the Toll receptors, that cause inflammation in the brain and that are typically activated in injuries.

[4] = system: chemokine receptor 8 (CCR8); assay: Blocking of chemokine receptor 8; assay type: cell-based
Excerpt: The peptides share activity to block diverse chemokine receptors. […] Thus again, with a different receptor target, the all-D peptide performs very similarly to its mostly L-amino acid prototype first described in Pert, 1986. (FIG. 3).

[5] = molecular target: CCL2 (MCP-1) chemotaxis, CCR5/CCR2 (Homo sapiens, UniProt P41597); details: human monocytes, FIG. 1
Excerpt: Triplicate determinations were made and results are expressed as the mean plus or minus SEM. The experiment shown is a direct comparison among all RAPs. Statistical analysis was by unpaired t-test, with significance set at the p<0.01 (*) level for difference from CCL2 only chemotaxis.

inflammatory cytokines [6] = details: Rat; unpublished
[7] = nerve injury model; Padi; cited from earlier work
inflammatory cytokines [8] = details: Rat; Padi, 2012; cited from earlier work
MIP-1β (CCL4)/CCR5 = MIP-1β (CCL4)/CCR5 (Homo sapiens, UniProt P51681); details: low (sub-pM) concentrations, MIP-1β 50 ng/mL, monocytes treated with GM-CSF for 48 hours
Excerpt: It is compared for biopotency with an all-D amino acid close analog whereby all of the amino acids are made in the D form (RAP-310) to block the CCR5 chemokine receptors.
Data are the average of triplicate determinations. Data are presented as Mean±SEM.

CCL2/CCR2 = CCL2/CCR2 (Homo sapiens, UniProt P41597); details: human monocytes
CCR2 (MCP-1) = molecular target: T1, CCR2 (MCP-1) (Homo sapiens, UniProt P41597); assay: MCP-1 elicited chemotaxis of human monocytes, all-D-pentapeptides (FIG. 2); assay type: cell-based; details: 20 pM peptide for 30 minutes, MCP-1 0.6 nM for 2 hours, purified human monocytes
T1 construct: Purified human monocytes were treated with 20 pM of All-D-pentapeptides; endogenous in cells; host or cells: purified human monocytes
Excerpt: A representative experiment is shown comprising triplicate determinations and is presented as relative fluorescence units, Mean±SEM.

T1 sequence (P41597 whole entry): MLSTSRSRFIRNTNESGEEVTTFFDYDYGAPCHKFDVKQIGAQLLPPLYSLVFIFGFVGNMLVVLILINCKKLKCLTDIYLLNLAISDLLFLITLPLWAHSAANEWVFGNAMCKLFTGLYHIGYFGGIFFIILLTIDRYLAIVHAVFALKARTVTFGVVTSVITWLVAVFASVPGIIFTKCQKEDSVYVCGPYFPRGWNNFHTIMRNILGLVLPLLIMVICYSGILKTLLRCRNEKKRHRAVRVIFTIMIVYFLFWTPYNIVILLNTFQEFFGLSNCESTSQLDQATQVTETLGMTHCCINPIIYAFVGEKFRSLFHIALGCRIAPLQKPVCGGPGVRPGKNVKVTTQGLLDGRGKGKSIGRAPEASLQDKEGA
MIP-1β (CCL4)/CCR5, sequence (P51681 whole entry): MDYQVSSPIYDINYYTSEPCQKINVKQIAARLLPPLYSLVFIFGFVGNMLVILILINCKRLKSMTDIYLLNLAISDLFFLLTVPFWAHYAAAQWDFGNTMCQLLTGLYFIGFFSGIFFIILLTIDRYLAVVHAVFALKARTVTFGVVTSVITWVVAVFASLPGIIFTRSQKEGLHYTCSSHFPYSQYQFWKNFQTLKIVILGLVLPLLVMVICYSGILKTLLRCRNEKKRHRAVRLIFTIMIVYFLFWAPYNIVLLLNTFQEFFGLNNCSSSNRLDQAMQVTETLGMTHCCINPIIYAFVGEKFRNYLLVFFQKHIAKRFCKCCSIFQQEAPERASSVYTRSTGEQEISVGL
CCL2/CCR2, sequence (P41597 whole entry): as the sequence (P41597 whole entry) above
CCL2 (MCP-1) chemotaxis, CCR5/CCR2, sequence (P41597 whole entry): as above

## C[C@@H](N)C(=O)N[C@@H](CO)C(=O)N[C@H](C(=O)N[C@H](C(=O)N[C@H](C(=O)N[C@@H](CC(N)=O)C(=O)N[C@@H](Cc1ccc(O)cc1)C(=O)N[C@H](C(N)=O)[C@@H](C)O)[C@@H](C)O)[C@@H](C)O)[C@@H](C)O [RAP-101, D-Ala1-STTTNYT-NH2]
[1]
  inflammatory response induced by LPS (number and reactive state of microglial and astrocytes, NFkB expression): dramatically attenuated
Inflammatory cytokines [2]
  IL-1 change: decrease
  IL-6 change: decrease
  IL-8 change: decrease
  TNF-α change: decrease
[3]
  survival: 15/20
[4]
  blocking of CCR8: blocks
[5]
  potency to block CCL2 (MCP-1) chemotaxis: most potent

## C[C@H](O)[C@@H](N)C(=O)N[C@@H](C(=O)N[C@H](CC(N)=O)C(=O)N[C@H](Cc1ccc(O)cc1)C(=O)N[C@@H](C(=O)O)[C@H](C)O)[C@H](C)O [RAP-103, All-D-TTNYT]
Inflammatory cytokines [6]
  CCL2 change: decrease
  CCL3 change: decrease
  CCR2 change: decrease
  CCR5 change: decrease
  MCP-1 change: decrease
  MIP-1α change: decrease
  TNF-α change: decrease
[7]
  inflammation, cytokine secretion and monocyte infiltration: blocks
Inflammatory cytokines [8]
  IL-1β change: decrease
  IL-6 change: decrease

## C[C@H](O)[C@@H](NC(=O)[C@@H](Cc1ccc(O)cc1)NC(=O)[C@@H](CC(N)=O)NC(=O)[C@H](NC(=O)[C@H](NC(=O)[C@H](NC(=O)[C@@H](CO)NC(=O)[C@@H](C)N)[C@H](C)O)[C@H](C)O)[C@H](C)O)C(=O)O [RAP-310]
MIP-1β (CCL4)/CCR5
  potency to block CCR5-mediated human monocyte chemotaxis: comparable potency
[4]
  blocking of CCR8: comparable potency
CCL2/CCR2
  loss of potency in blocking CCL2-elicited chemotaxis compared to RAP-101: minimal loss of potency

## Asn-Thr-Arg-Tyr-Arg
CCR2 (MCP-1)
  inhibition of MCP-1 elicited chemotaxis: efficacious

## Asn-Thr-Ser-Tyr-Arg (NTSYR; Human immunodeficiency virus)
CCR2 (MCP-1)
  inhibition of MCP-1 elicited chemotaxis: efficacious

## Asn-Thr-Ser-Tyr-Gly (NTSYG; Human immunodeficiency virus)
CCR2 (MCP-1)
  inhibition of MCP-1 elicited chemotaxis: efficacious

## Glu-Thr-Trp-Tyr-Ser (ETWYS; Human immunodeficiency virus)
CCR2 (MCP-1)
  inhibition of MCP-1 elicited chemotaxis: efficacious

## Ile-Asn-Asn-Tyr-Thr (INNYT; Human immunodeficiency virus)
CCR2 (MCP-1)
  inhibition of MCP-1 elicited chemotaxis: efficacious

## Ile-Asp-Asn-Tyr Thr (IDNYT; Human immunodeficiency virus)
CCR2 (MCP-1)
  inhibition of MCP-1 elicited chemotaxis: efficacious

## Ser-Ser-Thr-Tyr-Arg (SSTYR; Human immunodeficiency virus)
CCR2 (MCP-1)
  inhibition of MCP-1 elicited chemotaxis: efficacious

## Thr-Thr-Ser-Tyr-Thr (TTSYT; Human immunodeficiency virus)
CCR2 (MCP-1)
  inhibition of MCP-1 elicited chemotaxis: efficacious
